Source: article PMC5829257, “Structure, computational and biochemical analysis of PcCel45A endoglucanase from Phanerochaete chrysosporium and catalytic mechanisms of GH45 subfamily C members” (Scientific Reports, 2018)

Target: T1, PcCel45A (Phanerodontia chrysosporium, UniProt B3Y002)
T1 construct: gene egv; mature single catalytic domain; pEXPYR+ vector, secreted from Aspergillus nidulans A773 (Results text says A. niger)
Assay: X-ray crystallography of the complex
Format: binding
Settings: bound at +1 and +2 subsites of the active-site groove; crystals in ammonium sulfate, Hepes pH 7.5, MPD

T1 sequence (B3Y002 entry or part of it): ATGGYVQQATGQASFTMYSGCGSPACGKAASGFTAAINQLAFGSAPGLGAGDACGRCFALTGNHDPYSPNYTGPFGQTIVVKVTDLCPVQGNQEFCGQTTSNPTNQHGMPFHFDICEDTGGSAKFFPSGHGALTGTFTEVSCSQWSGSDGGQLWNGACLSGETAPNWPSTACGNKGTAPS

**Q.** With `OC[C@H]1O[C@@H](O[C@H]2[C@H](O)[C@@H](O)C(O)O[C@@H]2CO)[C@H](O)[C@@H](O)[C@@H]1O` (stereo partly shown) [cellobiose] as the compound, how does the “X-ray crystallography of the complex” value read?
**A.** The structure of the PcCel45A-cellobiose complex revealed a single cellobiose molecule within the active-site groove
